Measured values as given in patent US11147796B2, “Agent for preventing or ameliorating hearing impairment” (Tohoku University, priority 2017, dated 2021).

Key:
[1] = test system: “m.1555A>G mutant” cells; experiment: Cell survival level (MTT assay, Cell Counting Kit-8) of BSO-treated cells; assay type: cell-based, human; conditions: BSO 100 μM, 48 hours
Protocol: (§1) In the following Examples 2, 3, and 5, “m.1555A>G mutant” cells were obtained by skin reproductive to a patient having “m.1555A>G mutation” to obtain dermal fibroblasts, then 10% Primary culture was carried out in DMEM (low glucose) culture solution (manufactured by Nacalai Tesque, Inc) containing FBS (Fetal bovine serum) under the condition of 5% CO2/20% O2, at 37° C. and isolated. In the following Examples 4 and 5, the inner ear culture was carried out in DMEM (high glucose) culture medium containing 10% FBS (Fetal bovine serum) under the condition of 5% CO2/20% O2, at 37° C.
[1] […]
[2] […] Cell survival level was measured by MTT assay using Cell Counting Kit-8 (manufactured by Dojindo Laboratories). That is, 100 μL of Cell Count Reagent SF was added to each well, incubated for 2 hours, and after 3 seconds of stirring with a microplate reader, the absorbance was measured at 450 nm (reference 750 nm). In addition, the level of cytotoxicity was detected by measuring lactate dehydrogenase (LDH) activity released extracellularly using Cytotoxicity LDH Assay Kit-WST (manufactured by Dojindo Laboratories). That is, 100 μL each of Working Solution prepared in each well was added, incubated for 30 minutes, Stop Solution was added in 50 μL each, and after stirring for 3 seconds with a microplate reader, the absorbance was measured at 490 nm (reference 750 nm).

[2] = test system: “m.1555A>G mutant” cells; experiment: Amount of ATP production in cells derived from hearing loss patients; assay type: cell-based, human; conditions: compound 10 μM, 12 hours
Protocol: as §1
[1] Three thousand “m.1555A>G mutant” cells were seeded per well in a 96-well cell culture plate and cultured for 24 hours.
[2] Compound #5 synthesized in Example 1 was mixed into the culture solution to be 10 μM and cultured for 12 hours (compound-treated group). As a control, “m.1555A>G mutant” cells were cultured in a culture medium in the absence of compound #5 (control group) or in a culture medium containing 0.01% DMSO (DMSO-treated group) for 12 hours. The concentration of ATP in the culture solution was measured with “cellular” ATP assay reagent (manufactured by Toyo Binet).

[3] = test system: wild-type male mice (C57BL/6) exposed to strong sound; experiment: Hearing ability by ABR after strong acoustic exposure; assay type: in vivo, mouse; conditions: vs non-administration group
Protocol: Ndufs 4 KO mice (mutant mice due to the substitution of the second exon of the Ndufs 4 gene with Neo sandwiched between loxP sequences) were purchased from Jacson Laboratory. The genetic background of the mouse was C57BL/6, and 60 days old (body weight 10 to 13 g) was used. Compound #5 (1 mg/kg body weight/day) synthesized in Example 1 was orally administered to Ndufs 4 KO mice (administration group of Ndufs 4 KO mice, n=5), between 28 and 60 days of age, at 60 days of age, the hearing ability of the compound #5 administration group was evaluated by auditory brainstem response (ABR). As a control, the hearing ability of Nudfs 4 KO mice not received compound #5 (non-administration group of Ndufs 4 KO mice, n=4), wild type mice not received compound #5 (non-administration group of wild type mice, n=3) and Ndufs 4 hetero KO mice not received compound N #5 (non-administration group of Ndufs 4 hetero KO mice, n=4) was assessed by ABR at 60 days of age. In measuring the hearing ability, a mixture of ketamine (100 mg/kg body weight) and xylazine (20 mg/kg body weight) were anesthetized by intraperitoneal injection of mice. ABR was also analyzed using TDT System 3 workstation and BioSigRP software (Tucker-Davis Technologies). The averaging (1000 times) of the evoked response to the tone burst sound of each frequency (4, 8, 12, 16, and 32 kHz) was recorded. Stimuli sounds were presented at 5 dB intervals from each frequency, 100 dB SPL (Sound Pressure Level) to 10 dB SPL. The threshold value of ABR was set as the minimum sound pressure threshold value at which at least one waveform was confirmed with reproducibility.
Six male wild-type male mice (C57BL/6) were inoculated into each of three groups (non-administration group of wild type mice, administration (1) group of wild type mice and administration (10) group of wild type mice). Compound #5 (1 mg/kg body weight/day) was orally administered to the administration (1) group of wild type mice for 1 week, compound group #5 (10 mg/kg body weight/day) for 1 week. Compound #5 was not administered to the non-administration group of wild-type mice. After oral administration for 1 week, each group of mice was placed in a chamber for strong acoustic exposure in an awake state, and octave band noise of sound pressure level 100 dB SPL, 8 to 16 kHz was exposed for 2 hours. Noise was generated with a noise generator (SF-06, Random Noise Generator; manufactured by RION), then amplified with an amplifier (D-75A; manufactured by Crown), and the audio was filtered with an audio filter (Multifunction Filter; manufactured by NF Corporation). The frequency band was set and outputted by a speaker (2446H; manufactured by JBL) attached to the center of the ceiling in the chamber. The sound pressure level was measured and confirmed with a sound pressure measuring device (2250L; manufactured by Bruel & Kjar) for each experiment. Hearing power was evaluated by ABR according to the method described in item “6-1” of Example 6 before strong-acoustic exposure and 4 hours after exposure.

[4] = 1 mg/kg body weight/day oral for 1 week
[5] = 10 mg/kg body weight/day oral for 1 week

O=C(CC(C(=O)O)c1c[nH]c2ccccc12)c1ccc(F)cc1F (centres unmarked) [compound #5, 4-(2,4-Difluorophenyl)-2-(1H-indol-3-yl)-4-oxo-butanoic Acid]
decrease in cell survival level ([1]; compound 10 μM): significantly suppressed
decrease in cell survival level ([1]; compound at least 1 μM): inhibited
amount of ATP production [2]: increases
ABR threshold change before and after strong acoustic exposure [3, 4]: decreased
ABR threshold value after 4 hours of strong acoustic exposure [3, 4]: lower
ABR threshold change before and after strong acoustic exposure [3, 5]: decreased
ABR threshold value after 4 hours of strong acoustic exposure [3, 5]: lower
ABR threshold values before strong acoustic exposure ([3]; 1 and 10 mg/kg body weight/day oral for 1 week): no difference
